Here are results for 10 compounds from BindingDB's records for PubMed 25415869 (Genentech).

Assay [1] addresses Serine/threonine-protein kinase PAK 1 (Homo sapiens) (UniProt Q13153). The assay can be described thus: Inhibition of PAK1 (unknown origin).
For assay [2], the target named is Serine/threonine-protein kinase PAK1. The assay can be described thus: Inhibition of human recombinant PAK1 using KKRNRRLSVA as substrate assessed as inhibition constant preincubated with compound for 10 mins followed by substrate addition and measured after 60 mins by FRET assay.
The target in assay [3] is Serine/threonine-protein kinase PAK 1 (Homo sapiens) (UniProt Q13153). In words: Inhibition of PAK1 (unknown origin) in presence of ATP.
Chain of Serine/threonine-protein kinase PAK 1 (Homo sapiens) (Q13153 whole entry, looked up): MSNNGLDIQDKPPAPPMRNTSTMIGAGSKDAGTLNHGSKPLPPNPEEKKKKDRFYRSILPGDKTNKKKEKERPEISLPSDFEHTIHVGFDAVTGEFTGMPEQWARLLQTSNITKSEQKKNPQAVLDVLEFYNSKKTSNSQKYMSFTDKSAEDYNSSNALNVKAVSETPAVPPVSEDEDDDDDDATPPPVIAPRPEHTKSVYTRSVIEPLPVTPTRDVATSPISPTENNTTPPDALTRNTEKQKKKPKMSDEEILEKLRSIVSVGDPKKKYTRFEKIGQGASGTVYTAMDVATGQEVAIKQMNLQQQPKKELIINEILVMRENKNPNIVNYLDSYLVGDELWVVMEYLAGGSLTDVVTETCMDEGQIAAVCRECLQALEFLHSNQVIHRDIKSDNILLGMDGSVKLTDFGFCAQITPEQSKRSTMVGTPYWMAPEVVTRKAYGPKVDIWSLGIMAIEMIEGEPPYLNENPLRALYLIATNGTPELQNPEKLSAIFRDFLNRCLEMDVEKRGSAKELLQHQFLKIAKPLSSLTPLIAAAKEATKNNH
The target is the same in assay [4]. In words: Inhibition of PAK1 (unknown origin) using 5-FAM-KPDRKKRYTVVGNPY-amide as substrate incubated for 120 mins by caliper off-chip mobility shift assay.
Assay [5] shares this target. In words: Inhibition of PAK1 (unknown origin) in presence of ATP by Z-LYTE enzymatic kinase assay.

In general, IC50 refers to the point on the concentration scale where inhibition reaches its midpoint. What is called Ki is a dissociation constant, usually derived from enzyme kinetics or from competition with a known ligand.

In assay [1], `CCN1c2ccc(F)cc2N=C(N2CCN(C)CC2)c2cc(Cl)ccc21` displayed a 50% inhibitory concentration (IC50) of 340 nM.

In the case of `Cc1nc2ccc(C#CC(C)(C)O)cc2n1-c1ncnc(N)n1`, the inhibitory constant (Ki) in assay [2] was determined as 15300 nM.

In assay [1], `CN[C@@H]1C[C@H]2O[C@@](C)([C@@H]1OC)n1c3ccccc3c3c4c(c5c6cc(O)ccc6n2c5c31)C(=O)NC4` came in with a half-maximal inhibitory concentration (IC50) of 1 nM.

In turn, `CCN(Cc1ccc2[nH]cnc2c1Cl)c1nccc(Nc2cc(C(C)C)[nH]n2)n1` showed an IC50 in assay [1] of 1.6 nM.

On to `CN(Cc1ccc2[nH]ccc2n1)c1nccc(Nc2cc([C@H]3C[C@@H]3F)[nH]n2)n1`, for which, in assay [1], it took 8 nM to reach half-maximal inhibition (IC50).

Take `CCn1c(=O)c(-c2ccc(-c3noc(C)n3)cc2Cl)cc2cnc(Nc3ccc(C4CCN(C)CC4)cc3)nc21`: 4 nM corresponded to half-maximal inhibition in assay [1] (IC50).

For `O=C1NC(=O)c2cc(-c3ccccn3)ccc21`, in assay [3], the half-maximal inhibitory concentration (IC50) was > 100000 nM.

For the compound `O=C(c1ccccc1Cl)c1n[nH]c2ncc(-c3cnn(C4CCNCC4)c3)cc12`, the 50% inhibitory concentration (IC50) in assay [4] is 20 nM.

For `CCn1c(=O)c(-c2ccc(Cl)cc2Cl)cc2cnc(Nc3ccc(N4CCN(C)CC4)cc3)nc21` [FRAX414], the IC50 in assay [5] was found to be 20 nM.

With `CN1CCN(c2ccc(Nc3ncc4ccc(=O)n(C5CCCC5)c4n3)cc2)CC1` [Pyrido[2,3-d]pyrimidin-7-one 1], the half-maximal inhibitory concentration (IC50) in assay [5] stood at 483 nM.
